From ChEMBL document CHEMBL2062444, “The Rhodadyns, a New Class of Small Molecule Inhibitors of Dynamin GTPase Activity” (ACS Med Chem Lett, 2012) come the findings set out here.

Assay [1] can be described thus: Inhibition of sheep dynamin 1 GTPase activity after 30 mins by malachite-green method. Further details: species or system Ovis aries.
The species entered for the next assay is Homo sapiens. Put plainly: Inhibition of clathrin at 100 uM.
The species named for the next assay is Ovis aries. Put plainly: Inhibition of sheep dynamin 1 GTPase activity up to 300 uM after 30 mins by malachite-green method.
The target in another assay is T1, Dynamin-1 (Homo sapiens) (UniProt Q05193).
T1 sequence (whole entry): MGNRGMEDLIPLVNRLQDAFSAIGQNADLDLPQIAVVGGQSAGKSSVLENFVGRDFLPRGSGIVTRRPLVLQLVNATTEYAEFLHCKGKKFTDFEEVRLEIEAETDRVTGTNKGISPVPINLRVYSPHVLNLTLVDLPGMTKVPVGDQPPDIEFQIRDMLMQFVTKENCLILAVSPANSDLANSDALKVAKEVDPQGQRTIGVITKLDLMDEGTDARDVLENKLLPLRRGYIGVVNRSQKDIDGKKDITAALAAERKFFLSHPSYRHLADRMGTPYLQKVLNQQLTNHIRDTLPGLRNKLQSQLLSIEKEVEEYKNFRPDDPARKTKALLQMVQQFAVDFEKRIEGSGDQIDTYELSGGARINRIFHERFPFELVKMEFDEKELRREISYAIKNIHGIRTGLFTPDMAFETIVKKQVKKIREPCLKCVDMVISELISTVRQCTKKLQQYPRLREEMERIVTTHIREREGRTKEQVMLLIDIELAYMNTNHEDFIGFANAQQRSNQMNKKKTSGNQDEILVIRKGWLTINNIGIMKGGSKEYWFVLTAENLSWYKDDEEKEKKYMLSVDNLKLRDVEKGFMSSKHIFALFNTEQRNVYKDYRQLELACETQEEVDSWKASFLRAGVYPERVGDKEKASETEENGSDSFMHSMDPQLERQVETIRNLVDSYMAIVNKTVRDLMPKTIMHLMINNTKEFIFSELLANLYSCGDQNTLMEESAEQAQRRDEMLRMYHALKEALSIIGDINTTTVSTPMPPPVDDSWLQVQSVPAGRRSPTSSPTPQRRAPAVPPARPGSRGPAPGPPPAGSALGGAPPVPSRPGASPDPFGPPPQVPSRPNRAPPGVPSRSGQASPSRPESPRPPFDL
The assay can be described thus: Inhibition of dynamin1-mediated endocytosis in human U2OS cells assessed as inhibition of Texas red-Tf uptake incubated up to 300 uM for 30 mins prior to Texas red-Tf addition measured after 8 mins by receptor-mediated endocytosis assay. Type of assay: cell-based.

Molecules are shown by their SMILES. Calls of active or inactive are those of the source.

Take `O=C(O)CN1C(=O)/C(=C/c2ccc(-c3ccccc3)cc2)SC1=S`: in assay [1], half-maximal inhibition (IC50) was put at 73 µM. In addition, the inhibition entry in the assay listed under Homo sapiens is “inactive”.
The corresponding values for `CCN1C(=O)/C(=C/c2ccc(OCCCN(C)C)cc2)SC1=S` are 6.4 µM and “inactive”.
`O=C1NC(=S)S/C1=C\c1ccc2nsnc2c1`: the inhibition result in the assay listed under Ovis aries and in the assay filed under Homo sapiens was “inactive” each time.
As to `O=C(O)CCN1C(=O)/C(=C/c2ccc(Br)cc2)SC1=S`, the IC50 (commonly the point on the concentration scale where inhibition reaches its midpoint) in assay [1] amounted to 9 µM. In addition, in the assay filed under Homo sapiens, the inhibition entry was “inactive”.
For the compound `O=C1/C(=C/c2ccc(-c3ccccc3)cc2)SC(=S)N1Cc1ccccc1`, the inhibition result in the assay listed under Ovis aries and in the assay listed under Homo sapiens was “inactive” throughout.
In turn, `O=C(O)CCN1C(=O)/C(=C/c2ccc3nsnc3c2)SC1=S` showed an IC50 in assay [1] above 100 µM. The inhibition entry in the assay listed under Homo sapiens was “inactive”.
For `O=C(O)CN1C(=O)/C(=C/c2coc3c(Cl)cc(Cl)cc3c2=O)SC1=S` the same measures were 3.4 µM and “inactive”.
In turn, `O=C(O)CN1C(=O)/C(=C/c2cc(Cl)cc(Cl)c2)SC1=S` gave an IC50 in assay [1] of 5.5 µM. Also, the inhibition result in the assay listed under Homo sapiens and at Dynamin-1 (Homo sapiens) was “inactive” throughout.
As to `O=C1/C(=C/c2ccc3nonc3c2)SC(=S)N1Cc1ccccc1`, in assay [1], half-maximal inhibition (IC50) was put at 53 µM. In addition, the inhibition entry in the assay listed under Homo sapiens was “inactive”.
For `CCN1C(=O)/C(=C/c2coc3c(Cl)cc(Cl)cc3c2=O)SC1=S` the same measures were 5.1 µM and “inactive”.
`C=CCN1C(=O)/C(=C/c2ccc(-c3ccccc3)cc2)SC1=S`: the inhibition entry in the assay filed under Ovis aries and in the assay listed under Homo sapiens was “inactive” each time.
As for `O=C(O)CN1C(=O)/C(=C/c2csc3ccc(Cl)cc23)SC1=S`, in assay [1], the IC50 stood at 12.3 µM. For the same compound, the inhibition entry in the assay listed under Homo sapiens is “inactive”.
Regarding `C=CCN1C(=O)/C(=C/c2ccc3nsnc3c2)SC1=S`, the inhibition entry in the assay filed under Ovis aries and in the assay listed under Homo sapiens was “inactive” each time.
Take `CCN1C(=O)/C(=C/c2cc(Cl)cc(Cl)c2)SC1=S`: the IC50 in assay [1] is 3.1 µM. Moreover, the inhibition entry in the assay listed under Homo sapiens and at Dynamin-1 (Homo sapiens) was “inactive” each time.
As for `O=C(O)CCN1C(=O)/C(=C/c2coc3c(Cl)cc(Cl)cc3c2=O)SC1=S`, in assay [1], half-maximal inhibition (IC50) required 10 µM. The inhibition entry in the assay filed under Homo sapiens was “inactive”.
Take `O=C1NC(=S)S/C1=C\c1ccc(Br)cc1`: the inhibition result in the assay filed under Ovis aries and in the assay listed under Homo sapiens was “inactive” throughout.
For the compound `CN(C)CCCOc1ccc(/C=C2\SC(=S)N(Cc3ccccc3)C2=O)cc1`, it took 22 µM to reach half-maximal inhibition in assay [1] (IC50). Besides, the inhibition result in the assay listed under Homo sapiens and on Dynamin-1 (Homo sapiens) was “inactive” throughout.
For `CCN1C(=O)/C(=C/c2ccc3nsnc3c2)SC1=S`, the inhibition result in the assay listed under Ovis aries and in the assay listed under Homo sapiens was “inactive” in each case.
With `O=C(O)CCN1C(=O)/C(=C/c2ccc(-c3ccccc3)cc2)SC1=S`, in assay [1], 42 µM corresponded to half-maximal inhibition (IC50). For the same compound, the inhibition entry in the assay listed under Homo sapiens is “inactive”.
`O=C1NC(=S)S/C1=C\c1coc2c(Cl)cc(Cl)cc2c1=O` gave an IC50 in assay [1] of 24 µM. For the same compound, the inhibition entry in the assay filed under Homo sapiens is “inactive”.
`CN(C)CCCOc1ccc(/C=C2\SC(=S)N(CCC(=O)O)C2=O)cc1`: the inhibition entry in the assay listed under Homo sapiens is “inactive”.
In the case of `C=CCN1C(=O)/C(=C/c2ccc3nonc3c2)SC1=S`, the inhibition entry in the assay filed under Ovis aries and in the assay filed under Homo sapiens was “inactive” throughout.
As to `CCN1C(=O)/C(=C/c2csc3ccc(Cl)cc23)SC1=S`, the inhibition result in the assay listed under Ovis aries and in the assay listed under Homo sapiens was “inactive” throughout.
Take `C=CCN1C(=O)/C(=C/c2cnc3ccccc3n2)SC1=S`: the inhibition result in the assay filed under Ovis aries and in the assay listed under Homo sapiens was “inactive” each time.
Compound `C=CCN1C(=O)/C(=C/c2ccc(OCCCN(C)C)cc2)SC1=S` yielded a half-maximal inhibitory concentration (IC50) in assay [1] of 3.6 µM. The inhibition entry in the assay listed under Homo sapiens was “inactive”.
The compound `O=C1NC(=S)S/C1=C\c1cc(Cl)cc(Cl)c1` yielded an IC50 in assay [1] of 7.5 µM. Besides, the inhibition entry in the assay listed under Homo sapiens is “inactive”.
Regarding `C=CCN1C(=O)/C(=C/c2ccc(Br)cc2)SC1=S`, the inhibition entry in the assay listed under Ovis aries and in the assay listed under Homo sapiens was “inactive” in each case.
As to `O=C1/C(=C/c2ccc3nsnc3c2)SC(=S)N1Cc1ccccc1`, the inhibition result in the assay listed under Ovis aries and in the assay listed under Homo sapiens was “inactive” throughout.
As to `O=C(O)CN1C(=O)/C(=C/c2ccc3nsnc3c2)SC1=S`, the inhibition result in the assay listed under Ovis aries and in the assay filed under Homo sapiens was “inactive” in each case.
On to `O=C(O)CN1C(=O)/C(=C/C2=Cc3ccccc3OC2)SC1=S`, for which the inhibition entry in the assay listed under Ovis aries and in the assay listed under Homo sapiens was “inactive” throughout.
With `O=C1/C(=C/c2coc3c(Cl)cc(Cl)cc3c2=O)SC(=S)N1Cc1ccccc1`, in assay [1], half-maximal inhibition (IC50) required 7.4 µM. The inhibition entry in the assay listed under Homo sapiens was “inactive”.
Regarding `O=C1/C(=C/c2cc(Cl)cc(Cl)c2)SC(=S)N1Cc1ccccc1`, the IC50 in assay [1] turned out to be 50 µM. Moreover, the inhibition entry in the assay filed under Homo sapiens and on Dynamin-1 (Homo sapiens) was “inactive” each time.
For the compound `O=C(O)CCN1C(=O)/C(=C/c2cnc3ccccc3n2)SC1=S`, the inhibition entry in the assay filed under Ovis aries and in the assay filed under Homo sapiens was “inactive” throughout.
For the compound `C=CCN1C(=O)/C(=C/c2coc3c(Cl)cc(Cl)cc3c2=O)SC1=S`, the IC50 in assay [1] was above 100 µM. Besides, the inhibition entry in the assay filed under Homo sapiens was “inactive”.
As for `C=CCN1C(=O)/C(=C/c2csc3ccc(Cl)cc23)SC1=S`, the inhibition result in the assay listed under Ovis aries and in the assay listed under Homo sapiens was “inactive” throughout.
As for `CCN1C(=O)/C(=C/c2ccc3nonc3c2)SC1=S`, the inhibition entry in the assay filed under Ovis aries and in the assay listed under Homo sapiens was “inactive” each time.
`C=CCN1C(=O)/C(=C/c2cc(Cl)cc(Cl)c2)SC1=S` registered an IC50 in assay [1] of 31 µM. Besides, the inhibition result in the assay listed under Homo sapiens and on Dynamin-1 (Homo sapiens) was “inactive” in each case.
As to `O=C1NC(=S)S/C1=C\C1=Cc2ccccc2OC1`, in assay [1], half-maximal inhibition (IC50) was put at 90 µM. In addition, in the assay listed under Homo sapiens, the inhibition entry is “inactive”.
Consider `O=C1/C(=C/c2ccc(Br)cc2)SC(=S)N1Cc1ccccc1`, for which, in assay [1], the IC50 stood at 134 µM. The inhibition result in the assay listed under Homo sapiens was “inactive”.
The corresponding values for `O=C(O)CN1C(=O)/C(=C/c2ccc(Br)cc2)SC1=S` are above 100 µM and “inactive”.
The corresponding values for `O=C(O)CCN1C(=O)/C(=C/C2=Cc3ccccc3OC2)SC1=S` are 23.5 µM and “inactive”.
The corresponding values for `O=C1NC(=S)S/C1=C\c1csc2ccc(Cl)cc12` are 5.5 µM and “inactive”.
`CCN1C(=O)/C(=C/C2=Cc3ccccc3OC2)SC1=S`: the inhibition entry in the assay listed under Ovis aries and in the assay filed under Homo sapiens was “inactive” throughout.
As to `CN(C)CCCOc1ccc(/C=C2\SC(=S)N(CC(=O)O)C2=O)cc1`, the inhibition entry in the assay listed under Ovis aries and in the assay listed under Homo sapiens was “inactive” throughout.
In the case of `O=C1NC(=S)S/C1=C\c1ccc2nonc2c1`, the IC50 in assay [1] turned out to be 7.4 µM. Besides, the inhibition entry in the assay listed under Homo sapiens was “inactive”.
For `O=C(O)CN1C(=O)/C(=C/c2cnc3ccccc3n2)SC1=S` the same measures were above 100 µM and “inactive”.
Take `CCN1C(=O)/C(=C/c2cnc3ccccc3n2)SC1=S`: the inhibition entry in the assay filed under Ovis aries and in the assay filed under Homo sapiens was “inactive” each time.
On to `CCN1C(=O)/C(=C/c2ccc(-c3ccccc3)cc2)SC1=S`, for which the inhibition entry in the assay listed under Ovis aries and in the assay listed under Homo sapiens was “inactive” in each case.
`O=C(O)CCN1C(=O)/C(=C/c2ccc3nonc3c2)SC1=S`: the inhibition entry in the assay filed under Ovis aries and in the assay filed under Homo sapiens was “inactive” throughout.
As to `O=C1/C(=C/C2=Cc3ccccc3OC2)SC(=S)N1Cc1ccccc1`, the inhibition entry in the assay listed under Ovis aries and in the assay filed under Homo sapiens was “inactive” throughout.
Take `O=C1NC(=S)S/C1=C\c1ccc(-c2ccccc2)cc1`: the inhibition result in the assay filed under Ovis aries and in the assay filed under Homo sapiens was “inactive” each time.
Consider `C=CCN1C(=O)/C(=C/C2=Cc3ccccc3OC2)SC1=S`, for which the inhibition entry in the assay filed under Ovis aries and in the assay filed under Homo sapiens was “inactive” each time.
As to `O=C(O)CN1C(=O)/C(=C/c2ccc3nonc3c2)SC1=S`, the inhibition result in the assay filed under Ovis aries and in the assay listed under Homo sapiens was “inactive” throughout.
As for `O=C1/C(=C/c2cnc3ccccc3n2)SC(=S)N1Cc1ccccc1`, the inhibition entry in the assay filed under Ovis aries and in the assay filed under Homo sapiens was “inactive” each time.
As for `CN(C)CCCOc1ccc(/C=C2\SC(=S)NC2=O)cc1`, the inhibition result in the assay filed under Ovis aries and in the assay listed under Homo sapiens was “inactive” each time.
As for `CCN1C(=O)/C(=C/c2ccc(Br)cc2)SC1=S`, the inhibition entry in the assay filed under Ovis aries and in the assay filed under Homo sapiens was “inactive” throughout.
As for `O=C1/C(=C/c2csc3ccc(Cl)cc23)SC(=S)N1Cc1ccccc1`, the inhibition entry in the assay listed under Ovis aries and in the assay filed under Homo sapiens was “inactive” throughout.
